Data published in ChEMBL document CHEMBL1140500, “Arene cis-dihydrodiols: useful precursors for the preparation of analogues of the anti-tumour agent, 2-crotonyloxymethyl-(4R,5R,6R)-4,5,6-trihydroxycyclohex-2-enone (COTC)” (Bioorg Med Chem Lett, 2007).

Assays:
NCI-H460 = assay: Cytotoxicity against human H460 cells assessed as surviving cells after 4 days by MTT assay; type: cell-based
A549 = assay: Cytotoxicity against human A549 cells assessed as surviving cells after 4 days by MTT assay; type: cell-based

SMILES | IC50 (NCI-H460; nci-h460) [µM] | IC50 (A549; a549) [µM] | IC50 (NCI-H460; Homo sapiens, NCI-H460, 96 h) [µM] | IC50 (A549; Homo sapiens, A549, 96 h) [µM]
C/C=C/C(=O)OCC1=CC(O)C(O)C(O)C1=O (racemic) | 160 | 184 |  | 
C/C=C/C(=O)OCC1=CC(O)C2OC(C)(OC)C(C)(OC)OC2C1=O (racemic) | 18 | 30 |  | 
C/C=C/C(=O)OCC1=CC(O)C2OC(C)(OC)C(C)(OC)OC2C1=O (single isomer, unassigned; (+)) |  |  | 36 | 60
C/C=C/C(=O)OCC1=CC(O)C(O)C(O)C1=O (single isomer, unassigned; (-)) |  |  | 158 | 170
